From patent publication US6787354B2, “Methods for the early diagnosis of ovarian cancer” (The Board of Trustees of The University of Arkansas, priority 1997, dated 2004)
Ends that are not written are not given here.

Tested on: peptide-loaded lymphoblastoid cell lines (LCL)
Experiment: 51Cr-release cytotoxicity assay with peptide-specific CD8+ CTL
Format: cell-based, human
Description: Monocyte-derived dendritic cells were generated from peripheral blood drawn from normal adult donors of the appropriate HLA type. Adherent monocytes were cultured in AIM-V (Gibco-BRL) supplemented with GM-CSF and IL-4 according to standard techniques (Santin et al, 2000, 2001). After 5-6 days, dendritic cell maturation was induced by addition of PGE2, IL-1β and TNFα for a further 48 h.
Mature dendritic cells were loaded with peptide (2×10^6 dendritic cells with 50 μg/ml peptide in 1 ml serum-free AIM-V medium for 2 h at 37° C.) and washed once prior to culture with 1×10^6/ml peripheral blood mononuclear cells (PBMC) in AIM-V or AIM-V plus 5% human AB serum. The PBMC:DC ratio was between 20:1 and 30:1. After 7 days, responder T cells were restimulated with peptide-loaded, irradiated autologous dendritic cells or peripheral blood mononuclear cells at responder:stimulator ratios between 10:1 and 20:1 or 1:1 and 1:10 respectively. At this point, cultures were supplemented with recombinant human IL-2 (10-100 U/ml), and fed with 50-75% changes of fresh medium plus IL-2 every 2-4 days. T cell lines were established and maintained by peptide restimulation every 14-21 days. Responder CD8^+T cells were purified by positive selection with anti-CD8-coupled magnetic beads (Dynal, Inc.) after the 2nd or 3rd antigen stimulation.
Peptide-specific cytotoxicity was tested in standard 5-6 h microwell ^51Cr-release assays (Nazaruk et al, 1998). Autologous EBV-transformed lymphoblastoid cell lines (LCL) were loaded with peptide (50 μg/ml, 1 h at 37° C.) and subsequently ^51Cr-labeled (50 μCi in 200-300 μl, 1 h at 37° C.). Peptide-loaded ^51Cr-labeled LCL were incubated with CD8^+T cells at effector-target ration between 5:1 and 1.25:1. Cytotoxicity was recorded as percentage ^51Cr released into culture supernatants.

## GRWPWQVSL [GRWPWQVSL]
  Blocking of cytotoxicity against peptide-loaded LCL by MAb specific for a non-polymorphic HLA class I determinant: could be blocked

## SLGRWPWQV [SLGRWPWQV]
  Blocking of cytotoxicity against peptide-loaded LCL by MAb specific for a non-polymorphic HLA class I determinant: could be blocked
  Blocking of cytotoxicity by MAb specific for HLA A2.1: blocked
